Experiments:
RNase L = target: T1, RNase L (Homo sapiens, UniProt Q05823); assay: In vitro RNase L oligomerization, TGP-210-RL study; type: biochemical; conditions: in vitro cross-linking
T1 construct: GST; made in house
T1 sequence (Q05823 1-741): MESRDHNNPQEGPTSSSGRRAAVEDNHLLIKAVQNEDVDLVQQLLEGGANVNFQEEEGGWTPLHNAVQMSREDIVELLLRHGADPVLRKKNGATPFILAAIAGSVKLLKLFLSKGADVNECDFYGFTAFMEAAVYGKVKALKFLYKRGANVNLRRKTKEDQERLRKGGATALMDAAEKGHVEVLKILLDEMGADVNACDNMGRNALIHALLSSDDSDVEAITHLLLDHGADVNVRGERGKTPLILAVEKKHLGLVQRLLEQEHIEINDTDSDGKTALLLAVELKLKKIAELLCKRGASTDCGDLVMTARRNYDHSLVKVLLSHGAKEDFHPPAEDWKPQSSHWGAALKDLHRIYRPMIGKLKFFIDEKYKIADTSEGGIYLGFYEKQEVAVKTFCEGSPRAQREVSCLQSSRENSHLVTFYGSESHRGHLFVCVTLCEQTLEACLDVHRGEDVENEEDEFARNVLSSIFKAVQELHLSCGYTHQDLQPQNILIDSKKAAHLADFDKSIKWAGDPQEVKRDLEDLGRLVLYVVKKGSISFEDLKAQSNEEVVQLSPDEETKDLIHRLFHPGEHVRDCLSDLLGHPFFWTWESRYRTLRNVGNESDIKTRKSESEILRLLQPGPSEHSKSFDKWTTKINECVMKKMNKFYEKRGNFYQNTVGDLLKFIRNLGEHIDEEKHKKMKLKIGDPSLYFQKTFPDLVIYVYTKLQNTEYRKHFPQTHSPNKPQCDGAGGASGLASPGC
Method: An aliquot of RNase L (3 μM) in 1×RNase L Buffer was supplemented with 10 mM MgCl2, fresh 7 mM β-mercaptoethanol, and 50 μM of ATP. Dilutions of 2′-5′ A4, TGP-210, or TGP-210-RL were prepared in 1×RNase L Buffer supplemented with 10 mM MgCl2, fresh 7 mM β-mercaptoethanol, and 50 μM of ATP and added to the solution of RNase L in a total volume of 17.4 μL. The RNase L/compound solutions were incubated at room temperature for 5 min and then 1 μL of 44 mM dimethyl suberimidate (Thomas Scientific) in 0.4 M triethanolamine hydrochloride, pH 8.5, was added. After incubating at room temperature for 2 h, 3.6 μL of 6×Laemmli buffer (375 mM Tris-HCl, pH 6.8, 0.03% bromophenol blue, 0.6% β-mercaptoethanol, 12% SDS, 60% glycerol) was added. After heat denaturing the samples at 95° C. for 5 min, the samples were diluted 1:90 in 1×Laemmli buffer and then resolved by SDS-PAGE. After transferring to a PVDF membrane, the membrane was blocked in 1×TBST [1×TBS with 0.1% Tween-20 (v/v)] containing 5% nonfat milk for 1 h. […] After washing the membrane five times for 5 min each with 1×TBST, protein levels were quantified by chemiluminescence with SuperSignal West Pico Chemiluminescent Substrate (Pierce Biotechnology) per the manufacturer's protocol. RNase L bands associated with monomeric or oligomeric signals were quantified using ImageJ software (National Institutes of Health).

pre-miR-210 mimic = assay: Microscale thermophoresis binding, miR-210 Hairpin RNA; conditions: MST
Method: MST fluorescent measurements were performed on a Monolith NT.115 system (NanoTemper Technologies) using the fluorescence of a 5′-Cy5 labeled miR-210 Hairpin RNA (5′—Cy5 […]) (SEQ ID NO: 11), a 5′-Cy5 miR-210 Mutant RNA (5′—Cy5 […]) (SEQ ID NO: 12), or a 5′ Cy5 DNA Hairpin (5′—Cy5 […]) (SEQ ID NO: 13) which were purchased from IDT with RNase-free HPLC purification and used without further purification. The RNA (5 nM) was prepared in 1×MST Buffer (8 mM Na2HPO4, 190 mM NaCl, 1 mM EDTA, and 0.05% (v/v) Tween-20) and folded by heating at 60° C. for 5 min, and slowly cooling to room temperature. Compounds (TGP-210 or TGP-210-RL) were diluted in 1×MST Buffer and then were added to a final concentration of 20 μM, followed by 1:2 dilutions in 1×MST Buffer containing 5 nM RNA. Alternatively, RNase L in 1×MST Buffer was added to a final concentration of 50 nM in addition to compound and RNA. […] Fluorescence measurements (Ex: 605-645 nm, Em: 680-685 nm) were performed at 20% LED and 80% MST power, with a Laser-On time of 30 s and Laser-Off time of 5 s. The data were analyzed by thermophoresis analysis and fitted by the quadratic binding equation in MST analysis software (NanoTemper Technologies). Dissociation constants were then determined by curve fitting using a single-site model.

Oligomerization of RNase L (RNase L): not
Kd (pre-miR-210 mimic): 0.16 µM
Substance: Targapremir-210 [TGP-210]
